Tested on: fibroblasts (or smooth muscle cells)
Test: Measurement of lateral intrinsic forces of a cell layer cultured on an elastically deformable membrane (membrane deflection read by laser)
Type: cell-based
Conditions: for change in cell layer tension in dependence on time: FIG. 4, consecutive addition of thrombin (20, 50, 100 U/ml), EDTA (0.1% by weight, 2 min), trypsin (0.2% by weight, 15 min); for tension transmitted to the membrane (intrinsic forces): FIG. 5 and FIG. 6, addition of thrombin, then EDTA, then trypsin
Experimental: A commercially available PET membrane is adhered to an open end of a cylinder; the other end remains open. During the adhesion process, a metal ring is used to pull uniformly on the membrane, such that the membrane is then stretched so that it is completely flat but not plastically deformed. 400 μl of cell culture medium (DPBS), corresponding to a fill height of a liquid column of about 2 mm, are then applied to the membrane (having a diameter of 16 mm). Due to the culture medium, the membrane is elastically preformed, i.e. deflected, and prepared for the application of living material.
1 ml of a suspension of fibroblasts (or smooth muscle cells), containing a cell count of 5×10^4/ml (or 7×10^4/ml), is then added to the prestretched membrane and the entire device is incubated in an incubator at 37° C. for 4 days for the purpose of culturing the cells. After the culturing, the culture medium is replaced with 400 μl of fresh medium. The mounting, together with membrane and cells cultured on it, which has thus been prepared is inserted into the measuring device and the measurement is carried out using a laser beam as the sensor.
As a result of replication, the cells adhere to the membrane and form a confluent monolayer (or multilayer). In connection with this, the cells secrete, over time, an extracellular matrix (ECM).
As a result of the growth of the cells, and the tensile stress in the cell layer and in the ECM which is connected therewith, and as a result of the fact that the cells and the ECM adhere to the membrane, the membrane experiences a change in tension. As a consequence of this, the deflection of the membrane decreases and raises the fill level of the medium slightly. This change in the deflection of the membrane is determined using a laser.
In order to stimulate the cell layer(s), thrombin is added to the medium to give final concentrations of 0-100 U/ml. 20 U/ml of culture medium are added first of all. The thrombin binds to the thrombin receptors and induces cell contraction. The membrane rises further to a slight extent. In this connection, the cells contract with a time constant which is typical. After a theoretically infinite measuring time, the measured change in the deflection of the membrane reaches a typical saturation value. Further quantities of thrombin are added consecutively to the cell culture medium above the membrane in increasing order, i.e. initially 50 U/ml and then 100 U/ml. The changes in the deflection of the membrane are measured correspondingly.
In each case, the cells are permitted to develop the contraction until, in the simplest case by way of fitting an exponential function, there is no need to await the achievement of the final value but, instead, the final measurement of the achievable concentration can be approximated. This decreases the measuring time. Both the characteristic onset time for the thrombin-mediated contraction effect and the maximum contraction which can be achieved in association with this contraction can be calculated from the exponential function which has been fitted.
The cells are detached from the ECM by adding EDTA (0.1% by weight) for a reaction time of 2 min. The same volumes as the quantities of liquid which are added in this connection are simultaneously removed once again at another site in the measuring chamber. The cells become detached with a typical time constant. As a consequence of this, the tension in the membrane changes since the forces acting on the membrane as a result of the cell contraction are no longer present; this means that the membrane becomes further deflected once again. In this case, too, an exponential function is approximated and the time constant and the final value of the tension recovery can be calculated approximately.
The ECM which is adhering to the membrane still maintains a part of the tension which arose during the cell growth. Adding trypsin (0.2% by weight) for a reaction time of 15 min. degrades the ECM. […]

| Compound | change in cell layer tension in dependence on time | tension transmitted to the membrane (intrinsic forces) |
| --- | --- | --- |
| O=C(O)CN(CCN(CC(=O)O)CC(=O)O)CC(=O)O [EDTA] | intrinsic forces which are measured decrease | membrane relaxing |
| thrombin | contraction of the living material can be observed to increase as the concentration of thrombin increases | increase markedly |
| trypsin | also declines | tension in the extracellular matrix to subside |

Reference: patent publication US20040033482A1, “Device and method for the measurement of forces from living materials” (priority 2000, published 2004)
